# Experimental data as given in publication PMC8747035, “Design, Synthesis, and Biological Evaluation of 5,6,7,8-Tetrahydrobenzo[4,5]thieno[2,3-d]pyrimidines as Microtubule Targeting Agents” (Molecules, 2022).
# What was measured:
# [1] = system: Bovine brain tubulin; assay: Inhibition of purified tubulin assembly (turbidity); assay type: biochemical; details: 10 µM tubulin, 30 °C; read-out: Inhibition of Tubulin Assembly IC50 ± SD
# Experimental: (§1) Bovine brain tubulin was purified as described previously. The tubulin assembly assay has been described in detail. Briefly, 1.0 mg/mL of tubulin (10 µM) was preincubated for 15 min at 30 °C in 0.8 M monosodium glutamate (pH of 2 M stock solution adjusted to 6.6 with HCl), varying compound concentrations and 4% (v/v) DMSO as compound solvent. After the preincubation, the reaction mixtures were placed on ice and 0.4 mM GTP was added. The reaction mixtures were transferred to cuvettes at 0 °C in a recording spectrophotometer equipped with an electronic temperature controller. After baselines were established, the temperature was elevated over about 30 s to 30 °C, and changes in turbidity were monitored at 350 nm for 20 min. The compound concentration that caused a 50% reduction in increase in turbidity, interpolated from the values obtained with defined compound concentrations, was defined as the IC50 value. The assay to measure inhibition of [^3H]colchicine binding was described in detail previously. Briefly, 0.1 mg/mL (1.0 µM) tubulin was incubated at 37 °C with 5.0 µM [3H]colchicine and potential inhibitors at 5.0 µM. Incubation was for 10 min, at which point the reaction had reached 40–60% of the maximum colchicine that can be bound in reaction mixtures without inhibitor. The [^3H]colchicine was a product of PerkinElmer, USA. CA-4 was a generous gift of Dr. G. R. Pettit, Arizona State University.
# [2] = system: tubulin; assay: Inhibition of [3H]colchicine binding to tubulin; parameters: species or system Bovine; details: compound at 5 μM, 5.0 µM [3H]colchicine, 1.0 µM tubulin
# Experimental: as §1, with “Incubation was for 10 min, at which point the reaction had reached 40–60% of the maximum colchicine that can be bound in reaction mixtures without inhibitor.” left out, “USA.” for “USA. CA-4 was a generous gift of Dr. G. R. Pettit, Arizona State University.”
# [3] = system: HeLa cells; assay: SRB assay in HeLa cells; assay type: cell-based; details: Homo sapiens, read-out: IC50 ± SD in HeLa
# Experimental: (§2) Compounds 4–8, 10, 12, and 13 were evaluated for their abilities to overcome βIII-tubulin mediated drug resistance using an isogenic HeLa cell line pair (Table 4). […] The Rr values (Table 4) were calculated by dividing the IC50 of the βIII-tubulin expressing line by the IC50 obtained in the parental HeLa cells.
# (§3) The antiproliferative and cytotoxic effects of the compounds in cancer cells were evaluated using the SRB assay as previously described. MDA-MB-435 cells were obtained from the Lombardi Cancer Center of Georgetown University (Washington, DC, USA). SK-OV-3 and HeLa cells were purchased from ATCC. Details about the generation of the SK-OV-3 MDR1-M6/6 and HeLa WTβIII cells were described previously. The IC50 values represent an average of three independent experiments, each conducted using triplicate points.
# (§4) HeLa, A-10, SK-OV-3, and SK-OV-3 MDR1-M6/6 cells were grown in Basal Medium Eagle (Sigma-Aldrich, St. Louis, MO, USA) supplemented with 10% FBS (Hyclone, GE Life Sciences, Logan, UT, USA) 1% GlutaMAX (Gibco, Life Technologies, Waltham, MA, USA) and 50 µg/mL gentamycin (Life Technologies, USA). HeLa WTβIII cells were grown in Dulbecco’s Modified Eagle Medium (Life Technologies) supplemented with 10% FBS and 50 µg/mL gentamycin. MDA-MB-435 cells were maintained in Improved Minimum Essential Medium (Life Technologies) supplemented with 10% FBS and 25 µg/mL gentamycin. All cells were grown at 37 °C in a humidified environment with 5% CO2.
# [4] = system: HeLa WTβIII cells; assay: SRB assay in βIII-tubulin expressing HeLa WTβIII cells; assay type: cell-based; details: Homo sapiens, read-out: IC50 ± SD in HeLa WTβ3
# Experimental: as §2, §3, §4
# [5] = system: HL-60(TB); assay: NCI-60 growth inhibition, HL-60(TB); assay type: cell-based; details: Homo sapiens, Leukemia
# Text: (§5) Compound 4 had better potency than the lead compound 1 in 50 cancer cell lines. (better by 5 to 6-fold in leukemia, 2 to 17-fold in NSCLC, 2 to 6-fold in colon cancer, 2 to 5-fold in CNS cancer, 2 to 25-fold in melanoma, 2 to 5-fold in ovarian cancer, 2 to 9-fold in renal cancer, 2 to 5-fold in prostate cancer, and 2 to 6-fold in breast cancer compared to lead compound 1).
# [6] = system: NCI-H522; assay: NCI-60 growth inhibition, NCI-H522; assay type: cell-based; details: Homo sapiens, NSCLC
# Text: as §5
# [7] = system: HCT-15; assay: NCI-60 growth inhibition, HCT-15; assay type: cell-based; details: Homo sapiens, Colon Cancer
# Text: as §5
# [8] = system: SF-539; assay: NCI-60 growth inhibition, SF-539; assay type: cell-based; details: Homo sapiens, CNS Cancer
# Text: as §5
# [9] = system: MALME-3M; assay: NCI-60 growth inhibition, MALME-3M; assay type: cell-based; details: Homo sapiens, Melanoma
# Text: as §5
# [10] = system: M14; assay: NCI-60 growth inhibition, M14; assay type: cell-based; details: Homo sapiens, Melanoma
# Text: as §5
# [11] = system: UACC-257; assay: NCI-60 growth inhibition, UACC-257; assay type: cell-based; details: Homo sapiens, Melanoma
# Text: as §5
# [12] = system: OVCAR-3; assay: NCI-60 growth inhibition, OVCAR-3; assay type: cell-based; details: Homo sapiens, Ovarian Cancer
# Text: as §5
# [13] = system: NCI/ADR-RES; assay: NCI-60 growth inhibition, NCI/ADR-RES; assay type: cell-based; details: Homo sapiens, Ovarian Cancer
# Text: as §5
# [14] = system: A498; assay: NCI-60 growth inhibition, A498; assay type: cell-based; details: Homo sapiens, Renal Cancer
# Text: as §5
compound,measurement,setting,value
"COc1ccc(N(C)c2nc(N)nc3sc4c(c23)CCCC4)cc1 [Compound 4, N4-(4-methoxyphenyl)-N4-methyl-5,6,7,8-tetrahydrobenzo[4,5]thieno[2,3-d]pyrimidine-2,4-diamine]",IC50,[1],820 ± 40 nM
same,Inhibition of Colchicine Binding (% inhibition ± SD),[2],99.0 ± 1.0%
same,IC50,[3],13.5 ± 1.5 nM
same,IC50,[4],10.6 ± 1.8 nM
same,GI50,[5],4.38 nM
same,GI50,[6],6.87 nM
same,GI50,[7],8.85 nM
same,GI50,[8],7.93 nM
same,GI50,[9],12.2 nM
same,GI50,[10],4.32 nM
same,GI50,[11],18.4 nM
same,GI50,[12],17.1 nM
same,GI50,[13],6.19 nM
same,GI50,[14],12 nM
